Assay results published in patent publication US6407113B1, “Medicament for treatment of diastolic dysfunction” (Mitsubishi Chemical Corporation, priority 1998, dated 2002).

Legend:
[1] = system: ischemic/reperfused myocardium; assay: Regional cardiac function (%SS) in brief-ischemic/reperfused myocardium in dogs; assay type: in vivo; conditions: dog; 30 min LAD occlusion, 1 h reperfusion; 3 μg/kg i.v. 5 min before reperfusion then 30 μg/kg/hr infusion
Protocol: The chest of mongrel dogs (adult, male and female) was opened under anesthesia with pentobarbital (30 mg/kg, i.v.) and a portion of the left coronary anterior descending (LAD) was dissected. A catheter-tip-pressure transducer (Millar; MPC-500) was inserted from the left carotidartery into the left ventricle to determine the left ventricular pressure and its first differential value (dP/dt). A pair of crystal probes were mounted in the LAD region to determine changes in regional segment length. Diastolic segment length (EDL; threshold point of dP/dt) and systolic segment length (ESL; dP/dt(−) max point) were determined from the waveform of dP/dt, and the regional segment shortening (%SS) in the ischemic/reperfused myocardium was calculated as follows: %SS=(EDL−ESL)/EDL×100. After hemodynamic stability is established following operation, the dissected portion of LAD was occluded for 30 minutes and then reperfused for 1 hour. At the same time, the cardiac function (%SS) in the above-described ischemic/reperfused region was continuously monitored through-out the protocol. The animals were randomly grouped into two groups, one consisting of animals to be administered with the medicament of the present invention (Drug administration group; N=6) and the other of control group (N-6). […]

[2] = biological target: T1, sarcoplasmic reticulum Ca^2+-ATPase (Canis lupus familiaris, UniProt O46674); assay: Sarcoplasmic reticulum Ca2+-ATPase activity of myocardium collected after in vivo drug administration (Pi colorimetry); assay type: biochemical, dog
T1 construct: sarcoplasmic reticulum from both post-ischemic and non-ischemic regions of the left ventricle of dogs; from tissue; host or cells: dog left ventricle (LAD occluded 30 min, reperfused 30 min), sarcoplasmic reticulum fraction
T1 sequence (O46674 whole entry, the tested form may be a part): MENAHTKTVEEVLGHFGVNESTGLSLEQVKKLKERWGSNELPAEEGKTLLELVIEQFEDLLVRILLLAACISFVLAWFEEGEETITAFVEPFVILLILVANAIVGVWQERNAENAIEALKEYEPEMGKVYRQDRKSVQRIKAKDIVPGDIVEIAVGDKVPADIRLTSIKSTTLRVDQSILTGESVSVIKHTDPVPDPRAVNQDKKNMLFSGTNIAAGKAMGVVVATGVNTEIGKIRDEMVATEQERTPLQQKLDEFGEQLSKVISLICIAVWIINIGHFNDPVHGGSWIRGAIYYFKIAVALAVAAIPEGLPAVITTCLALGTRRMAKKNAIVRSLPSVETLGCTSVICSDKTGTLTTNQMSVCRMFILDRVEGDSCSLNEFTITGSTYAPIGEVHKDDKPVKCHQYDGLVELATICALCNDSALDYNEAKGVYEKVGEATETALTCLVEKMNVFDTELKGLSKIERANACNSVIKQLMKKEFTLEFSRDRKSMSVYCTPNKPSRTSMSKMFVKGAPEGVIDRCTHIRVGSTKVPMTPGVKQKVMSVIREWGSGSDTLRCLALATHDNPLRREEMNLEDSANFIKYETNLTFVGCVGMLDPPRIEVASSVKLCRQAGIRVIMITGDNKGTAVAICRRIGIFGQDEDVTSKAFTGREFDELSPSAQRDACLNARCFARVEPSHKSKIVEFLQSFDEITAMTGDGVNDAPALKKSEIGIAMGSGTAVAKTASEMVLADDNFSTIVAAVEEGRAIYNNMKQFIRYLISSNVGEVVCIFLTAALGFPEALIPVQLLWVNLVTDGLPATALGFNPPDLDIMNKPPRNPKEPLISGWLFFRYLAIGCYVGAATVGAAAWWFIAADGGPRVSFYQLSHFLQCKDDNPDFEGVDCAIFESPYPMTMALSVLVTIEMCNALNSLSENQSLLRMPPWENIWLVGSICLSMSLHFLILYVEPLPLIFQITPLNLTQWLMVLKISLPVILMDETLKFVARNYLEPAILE
Protocol: After hemodynamic stability is established following operation, the dissected portion of LAD was occluded for 30 minutes and then reperfused for 1 hour. At the same time, the cardiac function (%SS) in the above-described ischemic/reperfused region was continuously monitored through-out the protocol.
The animals were randomly grouped into two groups, one consisting of animals to be administered with the medicament of the present invention (Drug administration group; N=6) and the other of control group (N-6). The dogs of drug administration group were intravenously administered with the medicament of the present invention (3 μg/kg) into the right femoral vein 5 minutes before reperfusion, followed by continuous infusion at 30 μg/kg/hr. Dogs of the control group were administered with the equal amount of saline.
After 1-hour reperfusion, their hearts were isolated and the myocardium in post-ischemic region and non-ischemic region of the left ventricles were collected from which the fractions having sarcoplasmic reticulum Ca^2+-ATPase activity were extracted to be subjected to protein assay (Bradford method) and stored at −80° C. The defrozen fractions were used to determine Ca^2+-ATPase activity. The activity was determined by measuring the amount of the generated inorganic phosphate (Pi) by colorimetry using phosphor/molybdic acid and malachite green (μmoles Pi/mg protein/min).
Next, results obtained from the Ca^2+-ATPase activity assay of the sarcoplasmic reticulum collected from each region are shown in FIGS. 2 and 3.

[3] = biological target: T1, sarcoplasmic reticulum Ca^2+-ATPase; assay: Direct effect in vitro on sarcoplasmic reticulum Ca2+-ATPase activity; assay type: biochemical, dog; conditions: preincubation 37° C. 5 min; for sarcoplasmic reticulum Ca^2+-ATPase activity, post-ischemic region, in vitro: control 0.045±0.005; for sarcoplasmic reticulum Ca^2+-ATPase activity, non-ischemic region, in vitro: control 0.057±0.003
Protocol: The Ca^2+-ATPase activity of the sarcoplasmic reticulum from both post-ischemic and non-ischemic regions of the left ventricle of dogs, in which LAD was occluded for 30 minutes followed by reperfusion for 30 minutes, was measured in the same manner as in Example 1. The direct effect of the medicament of the present invention on the sarcoplasmic reticulum was examined in vitro by determining the amount of inorganic phophorous generated during the reaction for 15 minutes, which was triggered by adding ATP to the reaction solution, with the preincubated medicament of the present invention at 37° C. for 5 minutes.
For each of post-ischemic region and non-ischemic region (N=6), three groups were tested; control group which was preincubated with H2O, groups with low level dosage (10^−7 M of the medicament of the present invention was administered), and group with high level dosage (10^−6 M of the medicament of the present invention was administered)

Row | sarcoplasmic reticulum Ca^2+-ATPase activity, post-ischemic region ([2]; Ca^2+ 10 μM, dog dosed in vivo 3 μg/kg i.v. + 30 μg/kg/hr, control group 0.070±0.004) [μmol Pi/mg min] | sarcoplasmic reticulum Ca^2+-ATPase activity, non-ischemic region ([2]; Ca^2+ 10 μM, dog dosed in vivo 3 μg/kg i.v. + 30 μg/kg/hr, control group 0.089±0.009) [μmol Pi/mg min] | sarcoplasmic reticulum Ca^2+-ATPase activity, post-ischemic region, in vitro ([3]; 10^−6 M (high concentration)) [μmol Pi/mg min] | sarcoplasmic reticulum Ca^2+-ATPase activity, non-ischemic region, in vitro ([3]; 10^−6 M (high level dosage)) [μmol Pi/mg min] | sarcoplasmic reticulum Ca^2+-ATPase activity, post-ischemic region, in vitro ([3]; 10^−7 M (low concentration)) [μmol Pi/mg min] | sarcoplasmic reticulum Ca^2+-ATPase activity, non-ischemic region, in vitro ([3]; 10^−7 M (low level dosage)) [μmol Pi/mg min] | SMILES | regional cardiac function (%SS) in post-reperfusion region compared to control group [1] | inhibition of the ATPase activity of the sarcoplasmic reticulum fraction ([2]; 1 μM)
1 | 0.090±0.008 | 0.088±0.006 | 0.062±0.005 | 0.060±0.003 | 0.057±0.003 | 0.062±0.002 | Cc1ccc(N2CCNCC2)c(S(=O)(=O)O)c1 [medicament of the present invention, 2-(1-piperazinyl)-5-methylbenzenesulfonic acid derivative monohydrate] | significantly improved | –
2 | – | – | – | – | – | – | C/C=C(/C)C(=O)O[C@H]1C(C)=C2[C@H]([C@@H]1OC(=O)CCCCCCC)[C@@](C)(OC(C)=O)C[C@H](OC(=O)CCC)[C@@]1(O)[C@H]2OC(=O)[C@@]1(C)O [Thapsigargin, reference compound] | – | completely inhibited
